Measurements as given in patent publication US7459451B2, “Pyrazolopyridine derivatives” (Astellas Pharma Inc., priority 2004, dated 2008).

| SMILES | melting point [°C] |
| --- | --- |
| CCn1ncc2c(-c3cncc(C)c3)c(CCC(=O)O)c(-c3ocnc3C)nc21 [Example 79, 3-[1-ethyl-6-(4-methyl-1,3-oxazol-5-yl)-4-(5-methyl-3-pyridyl)-1H-pyrazolo[3,4-b]pyridin-5-yl]propanoic acid] | 184 to 185.5 |
| CCn1ncc2c(-c3cncc(C)c3)c(/C=C/C(=O)O)c(CC(C)C)nc21 [Example 215, (2E)-3-[1-Ethyl-6-isobutyl-4-(5-methyl-3-pyridyl)-1H-pyrazolo[3,4-b]pyridin-5-yl]acrylic acid] | 212 to 213 |
| CCn1ncc2c(-c3cncc(Br)c3)c(C(=O)O)c(COC)nc21 [Example 86, 4-(5-Bromo-3-pyridyl)-1-ethyl-6-(methoxymethyl)-1H-pyrazolo[3,4-b]pyridine-5-carboxylic acid] | 162 to 163 |
| CCn1ncc2c(-c3cncc(C)c3)c(CCC(=O)O)c(CC3CC3)nc21 [Example 241, 3-[6-(Cyclopropylmethyl)-1-ethyl-4-(5-methyl-3-pyridyl)-1H-pyrazolo[3,4-b]pyridin-5-yl]propanoic acid] | 184 to 185 |
| CCn1ncc2c(-c3cncc(C)c3)c(/C=C/C(=O)O)c(COC(C)C)nc21 [Example 240, (2E)-3-[1-Ethyl-6-(isopropoxymethyl)-4-(5-methyl-3-pyridyl)-1H-pyrazolo[3,4-b]pyridin-5-yl]acrylic acid] | 198 to 199 |
| CCn1ncc2c(-c3ccc(Cl)s3)c(/C=C/C(=O)O)c(C(C)C)nc21 [Example 224, (2E)-3-[4-(5-Chloro-2-thienyl)-1-ethyl-6-isopropyl-1H-pyrazolo[3,4-b]pyridin-5-yl]acrylic acid] | 163 to 165 |
| CCn1ncc2c(CC3CCCCC3)c(/C=C/C(=O)O)c(-c3ccccc3)nc21 [Example 206, (2E)-3-[4-(Cyclohexylmethyl)-1-ethyl-6-phenyl-1H-pyrazolo[3,4-b]pyridin-5-yl]acrylic acid] | 201 to 202 |
| CCn1ncc2c(-c3cncc(C)c3)c(CCC(=O)O)c(CC(C)C)nc21 [Example 344, 3-[1-Ethyl-6-isobutyl-4-(5-methyl-3-pyridyl)-1H-pyrazolo[3,4-b]pyridin-5-yl]propanoic acid] | 190 to 191 |

Continued, values first:

| melting point [°C] | SMILES |
| --- | --- |
| 187 to 189 | CCn1ncc2c(-c3ccnc(C)c3)c(CCC(=O)O)c(C(C)C)nc21 [Example 351, 3-[1-Ethyl-6-isopropyl-4-(2-methyl-4-pyridyl)-1H-pyrazolo[3,4-b]pyridin-5-yl]propanoic acid] |
| 253 to 254 | CCn1ncc2c(-c3cncc(OC)c3)c(/C=C/C(=O)O)c(-c3ccccc3)nc21 [Example 218, (2E)-3-[1-Ethyl-4-(5-methoxy-3-pyridyl)-6-phenyl-1H-pyrazolo[3,4-b]pyridin-5-yl]acrylic acid] |
| 175 to 176 | CCn1ncc2c(-c3cncc(C)c3)c(C(=O)NCCOc3ccccc3)c(-c3ccccc3)nc21 [Example 246, 1-Ethyl-4-(5-methyl-3-pyridyl)-N-(2-phenoxyethyl)-6-phenyl-1H-pyrazolo[3,4-b]pyridine-5-carboxamide] |
| 212 to 213 | CCn1ncc2c(-c3cncc(C)c3)c(CCC(=O)O)c(C3CCC3)nc21 [Example 230, 3-[6-cyclobutyl-1-ethyl-4-(5-methyl-3-pyridyl)-1H-pyrazolo[3,4-b]pyridin-5-yl]propanoic acid] |
| 218 to 220.5 | CCn1ncc2c(-c3cncc(Cl)c3)c(/C=C/C(=O)O)c(C(C)C)nc21 [Example 228, (2E)-3-[4-(5-Chloro-3-pyridyl)-1-ethyl-6-isopropyl-1H-pyrazolo[3,4-b]pyridin-5-yl]acrylic acid] |
| 160 to 161 | CCn1ncc2c(-c3cncc(C)c3)c(C#N)c(C)nc21 [Example 74, 1-Ethyl-6-methyl-4-(5-methyl-3-pyridyl)-1H-pyrazolo[3,4-b]pyridine-5-carbonitrile] |
| > 250 | CCn1ncc2c(-c3ccccc3)c(/C=C/C(=O)O)c(-c3ccccc3)nc21 [Example 211, (2E)-3-(1-Ethyl-4,6-diphenyl-1H-pyrazolo[3,4-b]pyridin-5-yl)acrylic acid] |
